Three compounds from patent publication US20260234211A1, “POLYPEPTIDE HAVING MODIFIED STRUCTURE AND USE THEREOF” (Guangdong Raynovent Biotech Co., Ltd., priority 2023, published 2026) can be followed below.

The nature of series [1]: Pharmacokinetic properties in Cynomolgus macaques. The note with it: cynomolgus monkey, in vivo. In a few lines: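 Non-juvenile male cynomolgus macaques were used, three per compound. Plasma was sampled from 1 h to 240 h after administration. Drug levels were quantified by LC-MS/MS and pharmacokinetic parameters calculated from the concentration–time data.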
Series [2] has as its target T1, GCGR (Homo sapiens, UniProt P47871).
T1 construct: host or cells: HEK293
Kind of series: In vitro GCGR agonistic activity test (cAMP, HEK293 cell line). In kind it is cell-based. The protocol: (§1) The cell lines were constructed by Pharmaron Inc. See details in the table below.
(§2) The test compounds were diluted at a 5-fold dilution factor in 10 points, starting from an initial concentration of 200 nM.
(§3) 1) The cell lines were cultured respectively in complete medium at 37° C. and 5% CO2.
2) After digestion with TrypLE, the cells were re-suspended in experimental buffer respectively, and inoculated in a CulturPlate-384 cell culture plate at a density of 2000 cells/well and at a volume of 15 μL/well.
(§4) 1) Eu-cAMP tracer was freeze-thawed and diluted 50 fold with detection buffer; and Ulight-anti-cAMP was freeze-thawed and diluted 150 fold with detection buffer.
2) 5 μL of the test compounds were added respectively into experimental wells of the CulturPlate-384 cell culture plate, which was centrifuged at 200 g for 30 s, and left for stand at 37° C. for 30 min.
(§5) 3) 10 μL of Eu-cAMP tracer was added and then 10 μL of Uligh-anti-cAMP was added into experimental wells respectively.
(§6) 4) The reaction plate was centrifuged at 200 g at room temperature for 30 s and left for stand at 25° C. for 1 h.
5) Envision 2105 was used to collect data, with excitation light at 340 nm and emission light at 665 nm and 615 nm.

In series [3] the target is T2, GLP-1R (Homo sapiens, UniProt P43220).
T2 construct: host or cells: HEK293
T2 sequence (P43220 24-463, species assumed): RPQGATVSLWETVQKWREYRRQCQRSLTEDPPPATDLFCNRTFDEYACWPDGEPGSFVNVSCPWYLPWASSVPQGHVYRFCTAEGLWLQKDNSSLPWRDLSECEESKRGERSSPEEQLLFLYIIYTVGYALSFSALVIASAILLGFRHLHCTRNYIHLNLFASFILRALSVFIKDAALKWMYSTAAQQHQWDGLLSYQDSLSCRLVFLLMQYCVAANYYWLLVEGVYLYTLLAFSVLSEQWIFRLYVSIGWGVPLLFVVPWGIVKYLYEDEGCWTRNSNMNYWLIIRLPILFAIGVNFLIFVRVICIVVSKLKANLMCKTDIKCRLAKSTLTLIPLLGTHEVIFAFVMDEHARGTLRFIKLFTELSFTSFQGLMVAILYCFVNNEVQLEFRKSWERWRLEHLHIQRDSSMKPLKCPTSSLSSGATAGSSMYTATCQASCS
Kind of series: In vitro GLP-1R agonistic activity test (cAMP, HEK293 cell line). In kind it is cell-based. The protocol: as §1, §2, §3, §4, §5, §6

Series [4] deals with T3, GIPR (Homo sapiens, UniProt P48546).
T3 construct: host or cells: CHO
T3 sequence (P48546 22-466): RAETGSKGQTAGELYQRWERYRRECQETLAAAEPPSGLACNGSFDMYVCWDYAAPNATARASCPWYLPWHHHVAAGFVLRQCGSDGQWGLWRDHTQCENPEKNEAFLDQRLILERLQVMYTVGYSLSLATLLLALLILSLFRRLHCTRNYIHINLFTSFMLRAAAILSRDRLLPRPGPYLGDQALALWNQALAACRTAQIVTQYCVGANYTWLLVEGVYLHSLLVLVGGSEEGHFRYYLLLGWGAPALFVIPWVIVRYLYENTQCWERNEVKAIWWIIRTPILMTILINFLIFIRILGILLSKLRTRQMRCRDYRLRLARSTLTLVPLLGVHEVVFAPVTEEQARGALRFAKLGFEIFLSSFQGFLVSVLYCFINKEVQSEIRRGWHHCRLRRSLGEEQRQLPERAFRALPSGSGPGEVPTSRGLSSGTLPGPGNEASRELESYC
Kind of series: In vitro GIPR agonistic activity test (cAMP, CHO cell line). The settings on record: CHO cells expressing GIPR, read-out: GIP-1 EC50. The series is classed as cell-based. As to the method:
as §1, §2, §3, §4, §5, §6

Series [5] can be described thus: Metabolic stability in human kidney S9. The series is classed as in vitro ADME. The note with it: human, s9. In outline:
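Human kidney S9 (1 mg/mL final) with NADPH and UDPGA cofactors, test compound at 1 μM final, incubated at 37°C. Aliquots quenched with acetonitrile at 0.5, 5, 15, 30 and 60 min; LC-MS/MS peak areas used to derive depletion slopes.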

The test system of series [6] is DIO obesity mouse model. The series can be described thus: Pharmacodynamics in DIO obesity mouse model. The series is classed as in vivo. The note with it: DIO mice. The source says: Experimental purpose: To evaluate the effects of multiple administration of the test substance (compound) on body weight and glucolipid metabolism.
In this experiment, mice were used as test animals, which were induced with a high-fat diet (Research Diets: D12492) from 4-5 weeks old for 8 weeks, and the animals were grouped according to their body weights and fasting blood glucose levels, with the average body weight of the model animals being 47.2±0.3 g, the average body weight of the control animals being 27.9±0.3 g, the average fasting blood glucose of the model animals being 8.8±0.2 mmol/L, and the average fasting blood glucose of the control animals being 6.0±0.2 mmol/L. There were six animals in each group. The animals were administered immediately after grouping and were administered by subcutaneous injection every 3 days for 22 consecutive days. Both the normal control and model groups were given with vehicle (20 mM citrate buffer). Body weight and food intake were measured twice a week. Fasting blood glucose was tested on Days 10 and 20, OGTT test was performed on Day 20, and blood was collected on Day 23 to test the liver function indicators (ALT, AST, ALP) and serum lipid metabolism indicators (TC, TG, HDL, LDL). Liver tissues were taken to calculate organ indexes, and liver lipid metabolism indicators (hepatic TC, TG) were detected. The liver tissues were examined pathologically (HE, Oil Red) to evaluate the effects of the test substances on body weight and glucolipid metabolism in a high-fat diet-induced obesity mouse model.
The experimental data of each group of animals was described as mean±standard error (X±SEM). P<0.05 indicated the statistically significant difference. All statistical analysis was completed using Graphpad 8.0 software.

Where [7] appears, read: cAMP, HEK293 cells expressing GLP-1R, read-out: GLP-1 EC50.

Where two headings read alike, the source gives them in different places.

T1 sequence (P47871 26-477, species assumed): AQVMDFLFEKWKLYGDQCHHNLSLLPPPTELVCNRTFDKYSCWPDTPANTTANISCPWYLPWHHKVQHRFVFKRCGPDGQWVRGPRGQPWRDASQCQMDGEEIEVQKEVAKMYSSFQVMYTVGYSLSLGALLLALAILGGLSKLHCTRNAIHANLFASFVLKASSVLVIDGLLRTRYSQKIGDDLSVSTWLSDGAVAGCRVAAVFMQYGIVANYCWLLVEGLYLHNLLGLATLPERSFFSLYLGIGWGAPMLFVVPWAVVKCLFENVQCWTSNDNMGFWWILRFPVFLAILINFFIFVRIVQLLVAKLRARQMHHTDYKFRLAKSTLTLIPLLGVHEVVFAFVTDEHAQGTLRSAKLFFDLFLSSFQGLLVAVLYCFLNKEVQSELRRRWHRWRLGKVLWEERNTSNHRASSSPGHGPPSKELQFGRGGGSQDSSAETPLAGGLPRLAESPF

What is called Cmax is the maximum level reached in the sampled fluid or tissue. By Tmax is commonly meant the time at which the peak concentration occurs. As a reminder, the EC50 is the concentration that produces a half-maximal response. `CC[C@H](C)[C@H](NC(=O)[C@H](Cc1ccccc1)NC(=O)[C@H](C)NC(=O)C(C)(C)NC(=O)[C@H](CCC(N)=O)NC(=O)[C@H](C)NC(=O)[C@@H]1CCCCNC(=O)CN(C(=O)COCCOCCNC(=O)[C@@H](N)CCCCNC(=O)CC[C@H](NC(=O)CCCCCCCCCCCCCCCCCCC(=O)O)C(=O)O)CC(=O)NCCCC[C@H](NC(=O)[C@](C)(CC(C)C)NC(=O)[C@@H](NC(=O)[C@H](CO)NC(=O)[C@H](Cc2ccc(O)cc2)NC(=O)[C@H](CC(=O)O)NC(=O)[C@H](CO)NC(=O)[C@@H](NC(=O)[C@H](Cc2ccccc2)NC(=O)[C@@H](NC(=O)CNC(=O)[C@H](CCC(N)=O)NC(=O)C(C)(C)NC(=O)[C@@H](N)Cc2ccc(O)cc2)[C@@H](C)O)[C@@H](C)O)[C@@H](C)CC)C(=O)N[C@@H](CC(=O)O)C(=O)N[C@@H](CCCCN)C(=O)N1)C(=O)N[C@@H](CCC(=O)O)C(=O)N[C@@H](Cc1ccc(O)cc1)C(=O)N[C@@H](CC(C)C)C(=O)N[C@@H](CC(C)C)C(=O)N[C@@H](CCC(=O)O)C(=O)NCC(=O)NCC(=O)N1CCC[C@H]1C(=O)N[C@@H](CO)C(=O)N[C@@H](CO)C(=O)NCC(=O)N[C@@H](C)C(=O)N1CCC[C@H]1C(=O)N1CCC[C@H]1C(=O)N1CCC[C@H]1C(=O)N[C@@H](CO)C(N)=O` [Example 52, YAibQGT FTSDY SIα- MeL^1KD K^1KAQAib AFIEY LLEGG PSSGA PPPS-NH2 (SEQ ID NO: 24)]: the AUC(0-t) in series [1] (male cynomolgus macaques, plasma, read-out: AUC0-240 h) was 5.23 µM·h. In series [1] (male cynomolgus macaques, plasma, read-out: AUCINF), the AUC(0-inf) is 6.61 µM·h. Besides, in series [1] (male cynomolgus macaques, plasma, read-out: Cmax), the peak concentration (Cmax) was 36.2 nM. Also, in series [1] (male cynomolgus macaques, plasma, read-out: T1/2 (converted)), the half-life is 97.8 h. In series [1] (male cynomolgus macaques, plasma, read-out: Tmax), the Tmax was 29.3 h. In addition, the EC50 in series [2] is 25 pM; in series [3], 3 pM.

What is called microsomal CLint is the rate of metabolic loss divided by the concentration. Low values mean greater metabolic stability, high ones faster metabolism. With `CC[C@H](C)[C@H](NC(=O)[C@H](Cc1ccccc1)NC(=O)[C@@H]1CCCCNC(=O)CN(C(=O)COCCOCCNC(=O)COCCOCCNC(=O)CC[C@H](NC(=O)CCCCCCCCCCCCCCCCCCC(=O)O)C(=O)O)CC(=O)NCCCC[C@H](NC(=O)[C@H](CCCCN)NC(=O)[C@H](CC(=O)O)NC(=O)[C@H](CC(C)C)NC(=O)[C@](C)(CC(C)C)NC(=O)[C@@H](NC(=O)[C@H](CO)NC(=O)[C@H](Cc2ccc(O)cc2)NC(=O)[C@H](CC(=O)O)NC(=O)[C@H](CO)NC(=O)[C@@H](NC(=O)[C@H](Cc2ccccc2)NC(=O)[C@@H](NC(=O)CNC(=O)[C@H](CCC(N)=O)NC(=O)C(C)(C)NC(=O)[C@@H](N)Cc2ccc(O)cc2)[C@@H](C)O)[C@@H](C)O)[C@@H](C)CC)C(=O)N[C@@H](C)C(=O)N[C@@H](CCC(N)=O)C(=O)NC(C)(C)C(=O)N1)C(=O)N[C@@H](CCC(=O)O)C(=O)N[C@@H](Cc1ccc(O)cc1)C(=O)N[C@@H](CC(C)C)C(=O)N[C@@H](CC(C)C)C(=O)N[C@@H](CCC(=O)O)C(=O)NCC(=O)NCC(=O)N1CCC[C@H]1C(=O)N[C@@H](CO)C(=O)N[C@@H](CO)C(=O)NCC(=O)N[C@@H](C)C(=O)N1CCC[C@H]1C(=O)N1CCC[C@H]1C(=O)N1CCC[C@H]1C(=O)N[C@@H](CO)C(N)=O` [Example 1, YAibQGT FTSDY SIα- MeLLD K^1KAQAib ^1KFIEY LLEGG PSSGA PPPS-NH2 (SEQ ID NO: 1)], the half-maximal effective concentration (EC50) turned out to be 1 pM in series [4] and 9 pM in series [3] (setting [7]). The compound further registered a half-life at 1 μM in series [5] greater than 3.08 h. The same compound showed a microsomal CLint at 1 μM in series [5] of less than 3.75 µL/min/mg.

Take `CC[C@H](C)[C@H](NC(=O)[C@H](Cc1ccccc1)NC(=O)[C@H](C)NC(=O)C(C)(C)NC(=O)[C@H](CCC(N)=O)NC(=O)[C@H](C)NC(=O)[C@H](CCCCNC(=O)COCCOCCNC(=O)CC[C@H](NC(=O)CCCCCCCCCCCCCCCCCCC(=O)O)C(=O)O)NC(=O)[C@H](CCCCN)NC(=O)[C@H](CC(=O)O)NC(=O)[C@H](CC(C)C)NC(=O)[C@](C)(CC(C)C)NC(=O)[C@@H](NC(=O)[C@H](CO)NC(=O)[C@H](Cc1ccc(O)cc1)NC(=O)[C@H](CC(=O)O)NC(=O)[C@H](CO)NC(=O)[C@@H](NC(=O)[C@H](Cc1ccccc1)NC(=O)[C@@H](NC(=O)CNC(=O)[C@H](CCC(N)=O)NC(=O)C(C)(C)NC(=O)[C@@H](N)Cc1ccc(O)cc1)[C@@H](C)O)[C@@H](C)O)[C@@H](C)CC)C(=O)N[C@@H](CCC(=O)O)C(=O)N[C@@H](Cc1ccc(O)cc1)C(=O)N[C@@H](CC(C)C)C(=O)N[C@@H](CC(C)C)C(=O)N[C@@H](CCC(=O)O)C(=O)NCC(=O)NCC(=O)N1CCC[C@H]1C(=O)N[C@@H](CO)C(=O)N[C@@H](CO)C(=O)NCC(=O)N[C@@H](C)C(=O)N1CCC[C@H]1C(=O)N1CCC[C@H]1C(=O)N1CCC[C@H]1C(=O)N[C@@H](CO)C(N)=O` [LY3437943, reference compound]: in series [1], the AUC(0-inf) was 2.93 µM·h, the AUC(0-t) was 2.7 µM·h, the Cmax came to 22.1 nM and the time to peak (Tmax) stood at 29.3 h. The same compound gave a half-life in series [1] of 58.8 h. In series [6] (10 nmol/kg subcutaneous every 3 days), the Liver-body ratio is reported as 0.032 ± 0.003 g/g. In addition, in series [6] (10 nmol/kg subcutaneous every 3 days, first experiment), the “Change rate of body weight on Day 22” value is −29.19 ± 2.94%. Moreover, the “Change rate of body weight on Day 22” value in series [6] (10 nmol/kg, second experiment with similar protocol) is reported as −26.32 ± 1.91%. For the same compound, the “Fasting blood glucose, Day 0” value in series [6] (Day 0 (at grouping), 10 nmol/kg group) came out at 8.2 ± 0.3 mmol/L. In addition, the “Fasting blood glucose, Day 10” value in series [6] (Day 10, 10 nmol/kg subcutaneous every 3 days) was found to be 5.2 ± 0.9 mmol/L. Also, the “Fasting blood glucose, Day 20” value in series [6] (Day 20, 10 nmol/kg subcutaneous every 3 days) is reported as 6.2 ± 0.4 mmol/L. In addition, the 50% effective concentration (EC50) in series [2] (cAMP, HEK293 cells expressing GCGR, read-out: GCG EC50) came out at 31 pM. Further, in series [4], the concentration for a half-maximal effect (EC50) was 1 pM. Moreover, in series [3] (setting [7]), the EC50 amounted to 14 pM. In series [5], the half-life was greater than 3.08 h and the microsomal CLint was less than 3.75 µL/min/mg.
